{"source": "patent US20160279079A1", "about": "“COMPOSITIONS AND METHODS FOR TREATING BONE DISEASES” (INDIANA UNIVERSITY RESEARCH AND TECHNOLOGY CORPORATION, priority 2013, published 2016)", "key": {"[1]": {"system": "RAW264.7 mouse pre-osteoclast (monocyte/macrophage) cells", "experiment": "Cell mortality and live cell numbers (trypan blue, hemacytometer)", "type": "cell-based", "procedure": "METHOD EXAMPLE. Cell culture. MC3T3 E1 mouse osteoblast-like cells (clone 14—MC3T3 E1-14; and no clonal cells in supplementary figures), and RAW264.7 mouse pre-osteoclast (monocyte/macrophage) cells were cultured in αMEM containing 10% fetal bovine serum and antibiotics (50 units/ml penicillin, and 50 μg/ml streptomycin; Life Technologies, Grand Island, N.Y., USA). Cells were maintained at 37° C. and 5% CO2 in a humidified incubator. Cell mortality and live cell numbers were determined 24 h after the treatment with 20 ng/ml RANKL (PeproTech, Rocky Hills, N.C., USA) in response to 0.1-20 μM salubrinal or 1-20 μM guanabenz acetate (Tocris Bioscience, Ellisville, Mo., USA). Cells were stained with trypan blue and the numbers of live and dead cells were counted using a hemacytometer.\nMETHOD EXAMPLE. Inhibition of osteoclastogenesis of RAW264.7 cells by salubrinal. The primary aim of this study is to evaluate the effects of salubrinal on osteoclastogenesis. In response to 0.1-20 μM salubrinal for 24 h, cell mortality and live cell numbers of RAW264.7 pre-osteoclasts was examined. […] The number of live cells was increased by ˜50% by incubation with RANKL, and administration of 10-20 μM salubrinal reduced the numbers approximately by 10% (FIG. 3B).\nMETHOD EXAMPLE. Inhibitory effects of guanabenz on osteoclastogenesis of RAW264.7 cells. To further examine a potential involvement of p-eIF2α in regulation of osteoclastogenesis, we employed guanabenz that also acts as an inhibitor of de-phosphorylation of eIF2α was evaluated. […] Compared to the number of TRAP-positive multi-nucleated cells of 377 39 (RANKL only), guanabenz reduced the number of differentiated osteoclasts to 364±38 (1 μM), 288±51 (5 μM), 189±25 (10 μM), and 73±16 (20 μM)."}, "[2]": {"system": "c-Fos", "experiment": "Quantitative real-time PCR, c-Fos mRNA in RAW264.7 cells", "type": "cell-based, mouse", "procedure": "(§1) METHOD EXAMPLE. Quantitative real-time PCR. Total RNA was extracted using an RNeasy Plus mini kit (Qiagen, Germantown, Md., USA). Reverse transcription was conducted with high capacity cDNA reverse transcription kits (Applied Biosystems, Carlsbad, Calif., USA), and quantitative real-time PCR was performed using ABI 7500 with Power SYBR green PCR master mix kits (Applied Biosystems). We evaluated mRNA levels of ATF4, Osteocalcin (OCN), NFATcl, c-Fos, tartrate-resistant acid phosphatase (TRAP), and osteoclast-associated receptor (OSCAR) with the PCR primers listed in Table 1. GAPDH was used for internal control. The relative mRNA abundance for the selected genes with respect to the level of GAPDH mRNA was expressed as a ratio of Streated/Scontrol, where Streated=mRNA level for the cells treated with chemical agents, and Scontrol=mRNA level for control cells.\n(§2) METHOD EXAMPLE. Partial suppression of mRNA levels of NFATcl, c-Fos, TRAP, and OSCAR by salubrinal. […] On day 2, for instance, the RANKL-driven increase was 9.4±0.5 fold (NFATcl), 1.9±0.1 fold (c-fos), 165±4.2 fold (TRAP), and 467±22 fold (OSCAR). The reduction by 20 μM salubrinal was 46% (NFATcl), 32% (c-fos), 35% (TRAP), and 21% (OSCAR) (FIG. 5A).\n(§3) METHOD EXAMPLE. Reduction of RANKL-induced NFATcl, c-Fos, TRAP, and OSCAR by guanabenz. […] The normalized level of “1” was defined as the level for the cells that were not treated with RANKL without administration of guanabenz."}, "[3]": {"system": "tartrate-resistant acid phosphatase (TRAP)", "experiment": "Quantitative real-time PCR, TRAP mRNA in RAW264.7 cells", "type": "cell-based, mouse", "settings": "for expression of TRAP: absence of RANKL administration", "procedure": "as §1, §2, §3"}, "[4]": {"system": "NFATc1", "experiment": "Quantitative real-time PCR, NFATc1 mRNA in RAW264.7 cells", "type": "cell-based, mouse", "procedure": "as §1, §2, §3"}, "[5]": {"system": "Osteocalcin (OCN)", "experiment": "Quantitative real-time PCR, osteocalcin mRNA in MC3T3 E1-14 cells", "type": "cell-based, mouse", "settings": "for increase of the level of osteocalcin mRNA: 5 μM salubrinal", "procedure": "as §1\nMETHOD EXAMPLE. Knockdown of ATF4 and eIF2α by siRNA. Cells were treated with siRNA specific to ATF4 and eIF2α (Life Technologies). Selected target sequences for knockdown of ATF4 and eIF2α were: ATF4, 5′-GCU GCU UAC AUU ACU CUA A-3′; and eIF2α, 5′-CGG UCA AAA UUC GAG CAG A-3′. As a nonspecific control, a negative siRNA (Silencer Select #1, Life Technologies) was used. Cells were transiently transfected with siRNA for ATF4, eIF2α or control in Opti-MEM I medium with Lipofectamine RNAiMAX (Life Technologies). Six hours later, the medium was replaced by regular culture medium. The efficiency of silencing was assessed with immunoblotting or quantitative PCR 48 h after transfection.\nMETHOD EXAMPLE. ATF4-mediated elevation of osteocalcin mRNA in MC3T3 E1-14 cells. Salubrinal is an inhibitor of de-phosphorylation of eIF2α. […] Furthermore, the level of osteocalcin mRNA was increased 3.3±0.5 fold (24 h) and 3.3±0.3 fold (32 h) (FIG. 2B). […] Non-clonal MC3T3 E1 cells also presented elevation of p-eIF2α and ATF4, together with an increase in the mRNA levels of ATF4 and osteocalcin (Supplementary FIG. S2)."}, "[6]": {"system": "osteoclast-associated receptor (OSCAR)", "experiment": "Quantitative real-time PCR, OSCAR mRNA in RAW264.7 cells", "type": "cell-based, mouse", "procedure": "as §1, §2, §3"}, "[7]": {"system": "ATF4", "experiment": "Western immunoblotting, ATF4 in MC3T3 E1-14 cells", "type": "cell-based, mouse", "procedure": "METHOD EXAMPLE. Western Immunoblotting. Cells were lysed in a radioimmunoprecipitation assay (RIPA) buffer containing protease inhibitors (Santa Cruz Biotechnology, Santa Cruz, Calif., USA) and phosphatase inhibitors (Calbiochem, Billerica, Mass., USA). Isolated proteins were fractionated using 10-15% SDS gels and electro-transferred to Immobilon-P membranes (Millipore, Billerica, Mass., USA). The membrane was incubated for 1 h with primary antibodies followed by 45 min incubation with goat anti-rabbit or anti-mouse IgG conjugated with horseradish peroxidase (Cell Signaling, Danvers, Mass., USA). We used antibodies against ATF4, NFATcl (Santa Cruz), p-eIF2α (Thermo Scientific, Waltham, Mass., USA), eIF2α, caspase 3, cleaved caspase 3, p38 and p-p38 mitogen activated protein kinase (MAPK), extracellular signal-regulated kinase (ERK) and p-ERK, nuclear factor kappa B (NFκB) p65 and p-NFκB p65 (Cell Signaling), and β-actin (Sigma). Protein levels were assayed using a SuperSignal west femto maximum sensitivity substrate (Thermo Scientific), and signal intensities were quantified with a luminescent image analyzer (LAS-3000, Fuji Film, Tokyo, Japan).\nMETHOD EXAMPLE. ATF4-mediated elevation of osteocalcin mRNA in MC3T3 E1-14 cells. Salubrinal is an inhibitor of de-phosphorylation of eIF2α. […]"}, "[8]": {"settings": "20 μM guanabenz, 2 days after RANKL"}, "[9]": {"settings": "5 and 10 μM guanabenz, 2 days after RANKL"}, "[10]": {"settings": "20 μM salubrinal, day 2 after RANKL"}, "[11]": {"settings": "0.1-1 μM salubrinal, with RANKL, except on day 4"}, "[12]": {"settings": "0.1-1 μM salubrinal, with RANKL, day 2 and day 4"}}, "note": "Like-named read-outs stand apart in the source and are kept apart here.", "data": [{"smiles": "N=C(N)N/N=C/c1c(Cl)cccc1Cl", "note": "[guanabenz]", "values": [{"measurement": "cell mortality", "setting": "[1]", "value": "did not significantly alter"}, {"measurement": "c-Fos mRNA level", "setting": "[2]; [8]", "value": "reduced"}, {"measurement": "TRAP mRNA level", "setting": "[3]; [8]", "value": "reduced"}, {"measurement": "TRAP mRNA level", "setting": "[3]; [9]", "value": "effective in reducing"}, {"measurement": "expression of TRAP", "setting": "[3]", "value": "did not significantly alter"}, {"measurement": "NFATc1 mRNA level", "setting": "[4]; [8]", "value": "reduced"}, {"measurement": "mRNA level of osteocalcin", "setting": "[5]; guanabenz dose response", "value": "elevated the mRNA level of osteocalcin in a dose dependent manner"}, {"measurement": "OSCAR mRNA level", "setting": "[6]; [8]", "value": "reduced"}, {"measurement": "OSCAR mRNA level", "setting": "[6]; [9]", "value": "effective in reducing"}, {"measurement": "ATF4", "setting": "[7]; guanabenz", "value": "increase in p-eIF2α and ATF4"}]}, {"smiles": "O=C(/C=C/c1ccccc1)NC(NC(=S)Nc1cccc2cccnc12)C(Cl)(Cl)Cl", "note": "(centres unmarked) [salubrinal]", "values": [{"measurement": "Cell mortality ratio", "setting": "[1]; 0.1-20 μM salubrinal, 24 h, presence and absence of RANKL", "value": "did not present statistically significant differences"}, {"measurement": "reduction of the number of live cells", "setting": "[1]; 10-20 μM salubrinal, 24 h, with RANKL", "value": "~10", "unit": "%"}, {"measurement": "cell mortality", "setting": "[1]; absence of RANKL administration", "value": "did not significantly alter"}, {"measurement": "reduction of c-fos mRNA level", "setting": "[2]; [10]", "value": 32, "unit": "%"}, {"measurement": "c-fos mRNA level", "setting": "[2]; [11]", "value": "did not contribute to significant reduction"}, {"measurement": "reduction of TRAP mRNA level", "setting": "[3]; [10]", "value": 35, "unit": "%"}, {"measurement": "TRAP mRNA level", "setting": "[3]; [12]", "value": "did not contribute to significant reduction"}, {"measurement": "expression of TRAP", "setting": "[3]", "value": "did not significantly alter"}, {"measurement": "reduction of NFATc1 mRNA level", "setting": "[4]; [10]", "value": 46, "unit": "%"}, {"measurement": "NFATc1 mRNA level", "setting": "[4]; [11]", "value": "did not contribute to significant reduction"}, {"measurement": "increase of the level of osteocalcin mRNA", "setting": "[5]; 24 h", "value": "3.3±0.5", "unit": "fold"}, {"measurement": "increase of the level of osteocalcin mRNA", "setting": "[5]; 32 h", "value": "3.3±0.3", "unit": "fold"}, {"measurement": "salubrinal-driven elevation of the osteocalcin mRNA level", "setting": "[5]; ATF4 expression reduced by RNA interference", "value": "suppressed"}, {"measurement": "reduction of OSCAR mRNA level", "setting": "[6]; [10]", "value": 21, "unit": "%"}, {"measurement": "OSCAR mRNA level", "setting": "[6]; [12]", "value": "did not contribute to significant reduction"}, {"measurement": "ATF4 expression", "setting": "[7]; 5 μM salubrinal", "value": "increase in ATF4 expression"}]}]}
